According to ChEMBL document CHEMBL3046870, “Inhibition of chloroplast electron transport reactions by trifluralin and diallate” (Plant Physiol, 1977):
The source made the active and inactive calls. The rule behind the calls is not given here.

Tests used:
Spinacia oleracea [1] = assay: Inhibition of Spinacia oleracea (spinach) chloroplast electron transport chain-mediated DAD-induced cyclic phosphorylation at 10 uM by polarographically
[2] = Inhibition of Spinacia oleracea (spinach) chloroplast electron transport chain-mediated Mg2+-ATPase activity assessed as inorganic phosphate release
[3] = target: T1, Photosystem I iron-sulfur center (Spinacia oleracea) (UniProt P10098); assay: Inhibition of Spinacia oleracea (spinach) photosystem I assessed as light-induced oxidation of Cyt-f at 100 uM added prior to illumination by dual wavelength spectrophotometer analysis
T1 sequence (whole entry): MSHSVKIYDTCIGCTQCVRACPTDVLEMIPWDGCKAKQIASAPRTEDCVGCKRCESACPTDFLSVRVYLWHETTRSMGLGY

Spinacia oleracea [4] = assay: Inhibition of Spinacia oleracea (spinach) chloroplast electron transport chain-mediated PMS-induced cyclic phosphorylation at 200 uM […]
Spinacia oleracea [5] = assay: Inhibition of Spinacia oleracea (spinach) chloroplast electron transport chain-mediated DAD-induced cyclic phosphorylation at 50 uM by polarographically
[6] = Inhibition of Spinacia oleracea (spinach) chloroplast electron transport chain-mediated PMS-induced cyclic phosphorylation […]
[7] = Inhibition of Spinacia oleracea (spinach) chloroplast electron transport chain-mediated light-induced ATP-Pi exchange assessed as inorganic phosphate release
Spinacia oleracea [8] = assay: Inhibition of Spinacia oleracea (spinach) chloroplast electron transport chain-mediated sulfhydryl-induced ATP-Pi exchange assessed as inorganic phosphate release at 200 uM treated during activation stage
[9] = Inhibition of Spinacia oleracea (spinach) chloroplast electron transport chain-mediated noncyclic photophosphorylation assessed as 32P-orthophosphate incorporation into ATP […]
[10] = target: Photosystem II protein D1 (Spinacia oleracea) (UniProt P69560); assay: Inhibition of Spinacia oleracea (spinach) photosystem II assessed as electron flow from H20 to PDOX at 300 uM after 1 hr by polarographically
Spinacia oleracea [11] = assay: Inhibition of Spinacia oleracea (spinach) chloroplast electron transport chain-mediated DAD-induced cyclic phosphorylation at 100 uM by polarographically
Spinacia oleracea [12] = assay: Inhibition of Spinacia oleracea (spinach) chloroplast electron transport chain-mediated PMS-induced cyclic phosphorylation at 25 uM […]
Spinacia oleracea [13] = assay: Inhibition of Spinacia oleracea (spinach) chloroplast electron transport chain-mediated rate of oxygen evolution per mg of chloroplast at 62.5 uM in presence of 0.31 mM DTT
Spinacia oleracea [14] = assay: Inhibition of Spinacia oleracea (spinach) chloroplast electron transport chain-mediated light-induced ATP-Pi exchange assessed as inorganic phosphate release at 200 uM
[15] = target: Photosystem II protein D1 (Spinacia oleracea) (UniProt P69560); assay: Inhibition of Spinacia oleracea (spinach) photosystem II assessed as light-induced re-reduction of Cyt-f at 100 uM added prior to illumination by dual wavelength spectrophotometer analysis
Spinacia oleracea [16] = assay: Inhibition of Spinacia oleracea (spinach) chloroplast electron transport chain-mediated PMS-induced cyclic phosphorylation at 100 uM by polarographically
Spinacia oleracea [17] = assay: Inhibition of Spinacia oleracea (spinach) chloroplast electron transport chain-mediated PMS-induced cyclic phosphorylation at 10 uM by polarographically
[18] = Inhibition of Spinacia oleracea (spinach) chloroplast electron transport chain assessed as electron flow from water to ferricyanide by polarographically
[19] = target: T2, Photosystem II protein D1 (Spinacia oleracea, UniProt P69560); assay: Inhibition of Spinacia oleracea (spinach) photosystem II mediated noncyclic photophosphorylation assessed as 32P-orthophosphate incorporation into ATP […]
Spinacia oleracea [20] = assay: Inhibition of Spinacia oleracea (spinach) chloroplast electron transport chain-mediated DAD-induced cyclic phosphorylation at 25 uM by polarographically
Spinacia oleracea [21] = assay: Inhibition of Spinacia oleracea (spinach) chloroplast electron transport chain-mediated rate of oxygen evolution per mg of chloroplast at 62.5 uM
[22] = target: T1, Photosystem I iron-sulfur center (Spinacia oleracea); assay: Inhibition of Spinacia oleracea (spinach) photosystem I assessed as electron flow from ascorbate/DAD to methylviologen at >200 uM after 1 hr by polarographically
Spinacia oleracea [23] = assay: Inhibition of Spinacia oleracea (spinach) chloroplast electron transport chain-mediated rate of oxygen evolution per mg of chloroplast at 125 uM in presence of 0.31 mM DTT
Spinacia oleracea [24] = assay: Inhibition of Spinacia oleracea (spinach) chloroplast electron transport chain-mediated PMS-induced cyclic phosphorylation at 50 uM […]
[25] = target: T2, Photosystem II protein D1; assay: Inhibition of Spinacia oleracea (spinach) photosystem II assessed as electron flow from H20 to PDOX after 1 hr by polarographically
Spinacia oleracea [26] = assay: Inhibition of Spinacia oleracea (spinach) chloroplast electron transport chain-mediated sulfhydryl-induced ATP-Pi exchange assessed as inorganic phosphate release at 200 uM treated during incubation stage
Spinacia oleracea [27] = assay: Inhibition of Spinacia oleracea (spinach) chloroplast electron transport chain-mediated light-induced ATP-Pi exchange assessed as inorganic phosphate release at 200 uM treated during activation stage
Spinacia oleracea [28] = assay: Inhibition of Spinacia oleracea (spinach) chloroplast electron transport chain-mediated rate of oxygen evolution per mg of chloroplast at 125 uM preincubated with DTT in dark condition for 5 min presence of 0.31 mM DTT
Spinacia oleracea [29] = assay: Inhibition of Spinacia oleracea (spinach) chloroplast electron transport chain-mediated rate of oxygen evolution per mg of chloroplast at 125 uM
[30] = Inhibition of Spinacia oleracea (spinach) chloroplast electron transport chain-mediated sulfhydryl-induced ATP-Pi exchange assessed as inorganic phosphate release
Spinacia oleracea [31] = assay: Inhibition of Spinacia oleracea (spinach) chloroplast electron transport chain-mediated sulfhydryl-induced ATP-Pi exchange assessed as inorganic phosphate release at 200 uM
Spinacia oleracea [32] = assay: Inhibition of Spinacia oleracea (spinach) chloroplast electron transport chain-mediated light-induced ATP-Pi exchange assessed as inorganic phosphate release at 200 uM treated during incubation stage
Spinacia oleracea [33] = assay: Inhibition of Spinacia oleracea (spinach) chloroplast electron transport chain-mediated DAD-induced cyclic phosphorylation at 200 uM by polarographically
[34] = target: Photosystem II protein D1 (Spinacia oleracea) (UniProt P69560); assay: Inhibition of Spinacia oleracea (spinach) photosystem II mediated noncyclic photophosphorylation assessed as 32P-orthophosphate incorporation into ATP up to 300 uM by polarographically
Spinacia oleracea [35] = assay: Inhibition of Spinacia oleracea (spinach) chloroplast electron transport chain assessed as residual activity of noncyclic electron flow using methylviologen as acceptor up to 300 uM by polarographically relative to control
Spinacia oleracea [36] = assay: Inhibition of Spinacia oleracea (spinach) chloroplast electron transport chain-mediated DAD-induced cyclic phosphorylation up to 200 uM by polarographically in presence of ascorbate in red light
Spinacia oleracea [37] = assay: Inhibition of Spinacia oleracea (spinach) chloroplast electron transport chain-mediated DAD-induced cyclic phosphorylation up to 200 uM by polarographically in absence of DCMU in red light
Spinacia oleracea [38] = assay: Inhibition of Spinacia oleracea (spinach) chloroplast electron transport chain assessed as residual electron flow from water to ferricyanide up to 300 uM by polarographically relative to control
[39] = target: T1, Photosystem I iron-sulfur center (Spinacia oleracea); assay: Inhibition of Spinacia oleracea (spinach) photosystem I assessed as light-induced oxidation of Cyt-f at 200 uM added prior to illumination by dual wavelength spectrophotometer analysis
[40] = Inhibition of Spinacia oleracea (spinach) chloroplast electron transport chain-mediated noncyclic electron flow using methylviologen as acceptor by polarographically
Spinacia oleracea [41] = assay: Inhibition of Spinacia oleracea (spinach) chloroplast electron transport chain-mediated rate of oxygen evolution per mg of chloroplast at 62.5 uM preincubated with DTT in dark condition for 5 min presence of 0.31 mM DTT
[42] = target: T1, Photosystem I iron-sulfur center (Spinacia oleracea); assay: Inhibition of Spinacia oleracea (spinach) photosystem I mediated noncyclic photophosphorylation assessed as 32P-orthophosphate incorporation into ATP up to 300 uM […]
Spinacia oleracea [43] = assay: Inhibition of Spinacia oleracea (spinach) chloroplast electron transport chain-mediated DAD-induced cyclic phosphorylation up to 200 uM by polarographically in absence of DCMU in white light
[44] = target: Photosystem II protein D1 (Spinacia oleracea) (UniProt P69560); assay: Inhibition of Spinacia oleracea (spinach) photosystem II assessed as light-induced re-reduction of Cyt-f at 200 uM added prior to illumination by dual wavelength spectrophotometer analysis

Structure (SMILES)	inhibition (Spinacia oleracea [1])	IC50 [2]	inhibition (Spinacia oleracea [4])	inhibition (Spinacia oleracea [5])	IC50 [7]	inhibition (Spinacia oleracea [8])	IC50 [9]	inhibition (Spinacia oleracea [11])	inhibition (Spinacia oleracea [12])	Activity (Spinacia oleracea [13])	inhibition (Spinacia oleracea [14])	inhibition (Spinacia oleracea [16])	inhibition (Spinacia oleracea [17])	IC50 [18]	inhibition (Spinacia oleracea [20])	Activity (Spinacia oleracea [21])	inhibition [22]	inhibition (Spinacia oleracea [24])	inhibition (Spinacia oleracea [26])	inhibition (Spinacia oleracea [27])	further results
CC(C)N(C(=O)SC/C(Cl)=C/Cl)C(C)C [Diallate]	8%	65 µM	66%	48%	20 µM	Active	25 µM	20%	25%	97 µmol/h	Active	52%	8%	20 µM	32%	105 µmol/h	inactive	54%	Active	Active	inhibition [3]: inactive; IC50 [6]: 50 µM; inhibition [10]: Active; inhibition [15]: Active; IC50 [19]: 100 µM; Activity (Spinacia oleracea [23]): 30 µmol/h; IC50 [25]: 75 µM; Activity (Spinacia oleracea [28]): 30 µmol/h; Activity (Spinacia oleracea [29]): 40 µmol/h; IC50 [30]: 20 µM; inhibition (Spinacia oleracea [31]): Active; inhibition (Spinacia oleracea [32]): Active; inhibition (Spinacia oleracea [33]): 32%
CCCN(CCC)c1c([N+](=O)[O-])cc(C(F)(F)F)cc1[N+](=O)[O-] [TRIFLURALIN]	6%	90 µM	20%	28%	20 µM	Active	50 µM	17%	16%	64 µmol/h	Active	16%	4%	10 µM	24%	62 µmol/h	inactive	18%	Active	Active	inhibition [34]: inactive; Imax [10]: 50%; Activity (Spinacia oleracea [35]): 10%; inhibition (Spinacia oleracea [36]): Active; inhibition (Spinacia oleracea [37]): Active; Activity (Spinacia oleracea [38]): 10%; inhibition [39]: inactive; IC50 [40]: 10 µM; IC50 [30]: 20 µM; Activity (Spinacia oleracea [41]): 60 µmol/h; inhibition (Spinacia oleracea [31]): Active; inhibition (Spinacia oleracea [32]): Active; inhibition [42]: inactive; inhibition (Spinacia oleracea [43]): Active; inhibition (Spinacia oleracea [33]): 6%; inhibition [44]: Active
